Test [1] addresses T1, human cloned 5-HT2A receptor, expressed in L929 cells (Homo sapiens, UniProt P28223).
T1 construct: expressed in transfected cells; host or cells: L929 cells
Briefly: In vitro binding affinity for 5-HT2A receptor ([125I]R91150 radioligand binding). The note with it: for IC50: human cloned 5-HT2A receptor in L929 cells, [125I]R91150, read-out: 5-HT2A pIC50 (converted). How it is done:
(§1) In Vitro Binding Affinity for 5-HT2A and 5-HT2C Receptors
(§2) The interaction of the compounds of Formula (I) with 5-HT2A and 5-HT2C receptors was assessed in in vitro radioligand binding experiments. […] During the incubation, the radioligands bind to the receptor. When equilibrium of binding is reached, the receptor bound radioactivity is separated from the non-bound radioactivity, and the receptor bound activity is counted. The interaction of the test compounds with the receptors is assessed in competition binding experiments. Various concentrations of the test compound are added to the incubation mixture containing the tissue preparation and the radioligand. Binding of the radioligand will be inhibited by the test compound in proportion to its binding affinity and its concentration. The affinities of the compounds for the 5-HT2 receptors were measured by means of radioligand binding studies conducted with: (a) human cloned 5-HT2A receptor, expressed in L929 cells using [^125I]R91150 as radioligand and (b) human cloned 5-HT2C receptor, expressed in CHO cells using [^3H]mesulergine as radioligand.

In test [2] the target is T2, human cloned 5-HT2C receptor, expressed in CHO cells (Homo sapiens, UniProt P28335).
T2 construct: expressed in transfected cells; host or cells: CHO cells
T2 sequence (P28335 33-458): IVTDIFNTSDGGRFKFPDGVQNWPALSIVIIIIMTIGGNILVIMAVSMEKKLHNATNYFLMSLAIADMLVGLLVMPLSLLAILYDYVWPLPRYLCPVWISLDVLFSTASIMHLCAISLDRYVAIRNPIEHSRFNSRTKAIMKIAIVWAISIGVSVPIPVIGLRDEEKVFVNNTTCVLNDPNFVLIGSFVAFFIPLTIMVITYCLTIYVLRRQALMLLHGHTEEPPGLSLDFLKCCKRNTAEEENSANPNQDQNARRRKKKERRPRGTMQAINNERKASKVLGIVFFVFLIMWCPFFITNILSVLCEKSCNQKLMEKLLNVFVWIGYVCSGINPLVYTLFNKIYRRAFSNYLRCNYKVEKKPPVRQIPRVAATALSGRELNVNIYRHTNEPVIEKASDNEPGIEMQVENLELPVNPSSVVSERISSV
In words: In vitro binding affinity for 5-HT2C receptor ([3H]mesulergine radioligand binding). The note with it: human cloned 5-HT2C receptor, read-out: 5-HT2C pIC50 (converted). As to the method: as §1
as §2, with “concentration.” for “concentration. The affinities of the compounds for the 5-HT2 receptors were measured by means of radioligand binding studies conducted with: (a) human cloned 5-HT2A receptor, expressed in L929 cells using [^125I]R91150 as radioligand and (b) human cloned 5-HT2C receptor, expressed in CHO cells using [^3H]mesulergine as radioligand.”

The target in test [3] is T3, human Dopamine D2L receptor (Homo sapiens, UniProt P14416).
T3 construct: expressed in transfected cells; host or cells: CHO cells
T3 sequence (P14416 whole entry): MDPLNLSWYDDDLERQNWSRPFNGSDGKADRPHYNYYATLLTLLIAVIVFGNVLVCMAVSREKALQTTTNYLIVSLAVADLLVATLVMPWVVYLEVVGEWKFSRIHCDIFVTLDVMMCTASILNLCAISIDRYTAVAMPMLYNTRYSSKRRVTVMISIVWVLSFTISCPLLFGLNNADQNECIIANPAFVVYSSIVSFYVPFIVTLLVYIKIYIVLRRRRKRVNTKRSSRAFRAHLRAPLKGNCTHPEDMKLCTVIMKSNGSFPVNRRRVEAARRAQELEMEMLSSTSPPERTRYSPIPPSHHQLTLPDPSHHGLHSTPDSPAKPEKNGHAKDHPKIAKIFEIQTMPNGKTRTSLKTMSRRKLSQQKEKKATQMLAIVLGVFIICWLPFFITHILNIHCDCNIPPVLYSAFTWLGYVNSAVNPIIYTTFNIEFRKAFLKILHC
Briefly: In vitro binding affinity for human D2L receptor ([3H]Spiperone binding). The note with it: human D2L receptor-transfected CHO cell membranes, read-out: D2L pIC50 (converted). As to the method: In Vitro Binding Affinity for Human D2L Receptor
Frozen membranes of human Dopamine D2L receptor-transfected CHO cells were thawed, briefly homogenised using an Ultra-Turrax T25 homogeniser and diluted in Tris-HCl assay buffer containing NaCl, CaCl2, MgCl2, KCl (50, 120, 2, 1, and 5 mM respectively, adjusted to pH 7.7 with HCl) to an appropriate protein concentration optimised for specific and non-specific binding. Radioligand [^3H]Spiperone (NEN, specific activity ˜70 Ci/mmol) was diluted in assay buffer at a concentration of 2 nmol/L. Prepared radioligand (50 μl), along with 50 μl of either the 10% DMSO control, Butaclamol (10^−6 mol/l final concentration), or compound of interest, was then incubated (30 min, 37° C.) with 400 μl of the prepared membrane solution. Membrane-bound activity was filtered through a Packard Filtermate harvester onto GF/B Unifilterplates and washed with ice-cold Tris-HCl buffer (50 mM; pH 7.7; 6×0.5 ml). Filters were allowed to dry before adding scintillation fluid and counting in a Topcount scintillation counter. Percentage specific bound and competition binding curves were calculated using S-Plus software (Insightful).

In test [4] the target is T4, NET (norepinephrine transporter) (Rattus norvegicus, UniProt Q63380).
T4 construct: Cortex from rat brain was collected and homogenised; from tissue; host or cells: rat brain cortex
T4 sequence (Q63380 1-617): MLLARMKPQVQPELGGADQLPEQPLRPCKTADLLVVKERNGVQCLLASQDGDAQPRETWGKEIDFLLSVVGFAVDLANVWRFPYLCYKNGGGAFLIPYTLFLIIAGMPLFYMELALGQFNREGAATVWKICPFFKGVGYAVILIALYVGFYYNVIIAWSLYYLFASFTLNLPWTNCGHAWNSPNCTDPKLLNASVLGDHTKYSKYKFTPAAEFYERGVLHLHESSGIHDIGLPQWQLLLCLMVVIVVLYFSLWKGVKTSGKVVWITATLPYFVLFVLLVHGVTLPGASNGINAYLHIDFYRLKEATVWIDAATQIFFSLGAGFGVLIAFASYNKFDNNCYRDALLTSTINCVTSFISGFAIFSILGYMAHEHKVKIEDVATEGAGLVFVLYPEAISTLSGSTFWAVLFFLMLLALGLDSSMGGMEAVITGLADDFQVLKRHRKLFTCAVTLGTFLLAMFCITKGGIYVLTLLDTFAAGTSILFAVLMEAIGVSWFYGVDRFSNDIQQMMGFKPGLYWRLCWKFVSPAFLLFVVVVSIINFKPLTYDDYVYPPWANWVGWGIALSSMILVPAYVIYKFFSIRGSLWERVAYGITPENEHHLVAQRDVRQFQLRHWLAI
Briefly: In vitro determination of NET reuptake inhibition ([3H]Nixosetine binding, rat brain cortex). The note with it: rat brain cortex, read-out: NET pIC50 (converted). As to the method: In Vitro Determination of NET Reuptake Inhibition
Cortex from rat brain was collected and homogenised using an Ultra-Turrax T25 and a Dual homogeniser in ice-cold homogenising buffer containing Tris, NaCl and KCl (50 mM, 120 mM and 5 mM, respectively, pH 7.4) prior to dilution to an appropriate protein concentration optimised for specific and non-specific binding. […] Membrane-bound activity was detected by filtration through a Packard Filtermate harvester onto GF/B Unifilterplates, washed with ice-cold Tris-HCl buffer, containing NaCl and KCl (50 mM, 120 mM and 4 mM; pH 7.4; 6×0.5 ml). Filters were allowed to dry for 24 h before adding scintillation fluid. Scintillation fluid was allowed to saturate filters for 24 h before counting in a Topcount scintillation counter. Percentage specific bound and competition binding curves were calculated using S-Plus software (Insightful).

pIC50: −log10 of the molar value. Read-outs that look alike come from different tables or passages of the source.

T1 sequence (P28223 whole entry): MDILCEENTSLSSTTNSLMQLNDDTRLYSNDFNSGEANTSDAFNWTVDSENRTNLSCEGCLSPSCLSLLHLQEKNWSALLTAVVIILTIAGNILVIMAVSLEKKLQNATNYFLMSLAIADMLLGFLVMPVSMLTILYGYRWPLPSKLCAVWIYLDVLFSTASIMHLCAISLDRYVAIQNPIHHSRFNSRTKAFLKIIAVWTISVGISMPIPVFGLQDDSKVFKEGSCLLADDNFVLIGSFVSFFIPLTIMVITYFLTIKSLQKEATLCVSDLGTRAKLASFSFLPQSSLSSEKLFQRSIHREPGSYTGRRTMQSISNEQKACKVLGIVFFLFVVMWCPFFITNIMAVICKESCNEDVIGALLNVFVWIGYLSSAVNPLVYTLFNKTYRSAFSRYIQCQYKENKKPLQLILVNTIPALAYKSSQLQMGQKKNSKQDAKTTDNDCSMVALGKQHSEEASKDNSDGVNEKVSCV

On to `OCCC1CCN(CC2CC3c4ccccc4Cc4ccc(F)cc4C3O2)C1` (mixture of isomers) [Compound 6], for which the IC50 in test [1] is 1.45 nM; in test [2] it was 1.7 nM; in test [3], 4.07 nM; in test [4], 501 nM.

In the case of `CN(C)C1CCN(CC2CC3c4ccccc4Cc4ccc(F)cc4C3O2)C1` (mixture of isomers) [Compound 9], the IC50 in test [1] is 9.12 nM; in test [2], 9.55 nM; in test [3] it was 9.12 nM; in test [4], 4570 nM.

In the case of `O=C(OC1CCN(CC2CC3c4ccccc4Cc4ccc(F)cc4C3O2)C1)C1CC1` (mixture of isomers) [Compound 13], the IC50 in test [1] was 0.912 nM; in test [2] it was 1.12 nM; in test [3], 3.47 nM; in test [4] it was 5010 nM.

Regarding `O=C(OC1CCN(CC2CC3c4ccccc4Cc4ccc(F)cc4C3O2)C1)C1CCCC1` (mixture of isomers) [Compound 14], the IC50 in test [1] was 4.17 nM; in test [2] it was 3.31 nM; in test [3] it was 3.89 nM; in test [4], 1230 nM.

In the case of `Cc1ccc(C(=O)OC2CCN(CC3CC4c5ccccc5Cc5ccc(F)cc5C4O3)C2)cc1` (mixture of isomers) [Compound 15], the IC50 in test [1] is 7.94 nM; in test [2], 6.31 nM; in test [3], 7.41 nM; in test [4] it was 2090 nM.

For `O=C(OC1CCN(CC2CC3c4ccccc4Cc4ccc(F)cc4C3O2)C1)c1ccc(F)cc1` (mixture of isomers) [Compound 16], the IC50 in test [1] was 5.62 nM; in test [2] it was 2.82 nM; in test [3], 5.13 nM; in test [4], 2000 nM.

As for `O=C(OC1CCN(CC2CC3c4ccccc4Cc4ccc(F)cc4C3O2)C1)c1ccc(F)cc1F` (mixture of isomers) [Compound 17], the IC50 in test [1] is 5.75 nM; in test [2], 4.68 nM; in test [3], 6.03 nM; in test [4] it was 1740 nM.

Turning to `O=C(Cc1ccccc1)OC1CCN(CC2CC3c4ccccc4Cc4ccc(F)cc4C3O2)C1` (mixture of isomers) [Compound 18], in test [1], the pIC50 (commonly the IC50 on a negative log10 scale, so that one unit is a factor of ten) is 8.22. The results for the IC50 in test [2], in test [3] and in test [4] were 3.63 nM, 10.2 nM and 1780 nM, respectively.

For `CCNC(=O)OCC1CCN(CC2CC3c4ccccc4Cc4ccc(F)cc4C3O2)C1` (mixture of isomers) [Compound 20], the IC50 is 0.832 nM in test [1], 1.41 nM in test [2], 3.63 nM in test [3] and 1050 nM in test [4].

As for `O=C(NC1CCCCC1)OCC1CCN(CC2CC3c4ccccc4Cc4ccc(F)cc4C3O2)C1` (mixture of isomers) [Compound 21], the IC50 in test [1] was 1.91 nM; in test [2] it was 2.88 nM; in test [3], 7.24 nM; in test [4], 1450 nM.

`O=C(Nc1ccccc1)OCC1CCN(CC2CC3c4ccccc4Cc4ccc(F)cc4C3O2)C1` (mixture of isomers) [Compound 22]: the IC50 in test [1] is 3.09 nM; in test [2], 3.72 nM; in test [3] it was 5.01 nM; in test [4], 2510 nM.

With `O=C(NCc1ccccc1)OCC1CCN(CC2CC3c4ccccc4Cc4ccc(F)cc4C3O2)C1` (mixture of isomers) [Compound 24], the IC50 is 1.82 nM in test [1], 1.45 nM in test [2], 4.27 nM in test [3] and 2690 nM in test [4].

In the case of `N#Cc1cccc(OC2CCN(CC3CC4c5ccccc5Cc5ccc(F)cc5C4O3)C2)c1` (mixture of isomers) [Compound 29], the IC50 in test [1] was 7.24 nM; in test [2], 3.39 nM; in test [3] it was 14.5 nM; in test [4] it was 8510 nM.

For the compound `COc1cccc(OC2CCN(CC3CC4c5ccccc5Cc5ccc(F)cc5C4O3)C2)c1` (mixture of isomers) [Compound 31], the IC50 in test [1] is 9.77 nM; in test [2], 3.24 nM; in test [3] it was 13.5 nM; in test [4] it was 4070 nM.

For the compound `O=C(OCc1ccccc1)N1CCN(CC2CC3c4ccccc4Cc4ccc(F)cc4C3O2)CC1` (centres unmarked) [Compound 85], the figures for the IC50 in test [1], in test [2] and in test [4] were 66.1 nM, 63.1 nM and above 10000 nM, respectively.

For `O=C(Nc1ccccc1)NC1CCN(CC2CC3c4ccccc4Cc4ccc(F)cc4C3O2)CC1` (centres unmarked) [Compound 247], the IC50 is 2.69 nM in test [2], 3.31 nM in test [3] and 3550 nM in test [4].

As to `N#Cc1ccc(NC(=O)NC2CCN(CC3CC4c5ccccc5Cc5ccc(F)cc5C4O3)CC2)cc1` (centres unmarked) [Compound 248], the IC50 was 6.17 nM in test [2], 2.09 nM in test [3] and 3800 nM in test [4].

Take `O=C(Nc1ccccc1Oc1ccccc1)NC1CCN(CC2CC3c4ccccc4Cc4ccc(F)cc4C3O2)CC1` (centres unmarked) [Compound 250]: the IC50 was 20.4 nM in test [2], 37.2 nM in test [3] and 3890 nM in test [4].

Consider `CS(=O)(=O)CCCCNC(=S)NC1CCN(CC2CC3c4ccccc4Cc4ccc(F)cc4C3O2)CC1` (centres unmarked) [Compound 251], for which the IC50 in test [2] is 8.51 nM; in test [3], 10.7 nM; in test [4] it was 3630 nM.

Regarding `COCCNC(=S)NC1CCN(CC2CC3c4ccccc4Cc4ccc(F)cc4C3O2)CC1` (centres unmarked) [Compound 252], the IC50 is 6.61 nM in test [2], 11.5 nM in test [3] and 3240 nM in test [4].

On to `Fc1ccc2c(c1)C1OC(CN3CCC(NC(=S)Nc4cccnc4)CC3)CC1c1ccccc1C2` (centres unmarked) [Compound 254], for which the IC50 in test [2] was 20 nM; in test [3], 12.3 nM; in test [4] it was 3470 nM.

In the case of `COc1cc(NC(=S)NC2CCN(CC3CC4c5ccccc5Cc5ccc(F)cc5C4O3)CC2)cc(OC)c1OC` (centres unmarked) [Compound 255], the IC50 in test [2] is 20.4 nM; in test [3], 20.4 nM; in test [4], 5620 nM.

For the compound `NCCNC(=S)NC1CCN(CC2CC3c4ccccc4Cc4ccc(F)cc4C3O2)CC1` (centres unmarked) [Compound 256], the IC50 in test [2] is 44.7 nM; in test [3] it was 44.7 nM; in test [4], 6460 nM.

For `OCC1CC2CN(C[C@H]3C[C@@H]4c5ccccc5Cc5ccc(F)cc5[C@@H]4O3)CCC2O1` (stereo partly drawn) [Compound 274, [2R-(2α, 3aα, 12bβ)]-(2′RS,3a′RS, 7a′RS)[5-(11-fluoro-3,3a,8,12b-tetrahydro-2H-1-oxa-dibenzo[e,h]azulen-2-ylmethyl)-octahydro-furo[3,2-c]pyridin-2-yl]-methanol.oxalate (1:1)], the IC50 in test [2] was 0.912 nM; in test [3], 16.2 nM; in test [4], above 10000 nM.

Source of the values: patent US8569267B2, “Tetracyclic tetrahydrofuran derivatives containing cyclic amine side chain” (Janssen Pharmaceutica, NV, priority 2005, dated 2013).
